Reference: patent publication EP0350948B1, “Porphyrin derivatives” (TOYOHAKKA KOGYO KABUSHIKI KAISHA, priority 1988, dated 1990)

Legend:
[1] = system: nitrosoamine-induced pancreatic cancer; experiment: in vivo irradiation therapy using Yag laser; design: species or system hamsters; conditions: i.v. 12.5 mg/kg bodyweight, Yag laser 1064 nm, 5 w, 10 sec x 4 at 24 hours after administration, autopsy 24 hours following irradiation
Method: Tumor bearing hamsters of Experiment 1 were i.v. administered the test materials C6-Ga-DP-diAsp (10) and C10 -Ga-DP-diAsp (16) (10 mg/ml) at 12.5 mg/kg bodyweight. At 24 hours after administration, the hair above the tumor site was shaved and irradiation with Yag laser commenced (1064 nm, 5 w, 10 sec x 4). At 24 hours following irradiation, the animals were exsanguinated and autopsied for observation.

[2] = system: nitrosoamine-induced pancreatic cancer; experiment: in vivo hemorrhagic necrosis effect; design: species or system hamsters; key to Hemorrhagic necrosis effect: four scales of G4, G3, G2 and G1; four scales of G4, G3, G2 and G1; four scales of G4, G3, G2 and G1; four scales of G4, G3, G2 and G1; conditions: for photograph of a cancer mass (Fig. 2): 24 hours after administration, Cn-Ga-DP-diAsp, n = even numbers; for Hemorrhagic necrosis effect: intensity of hemorrhagic necrosis at 24 hours following i.v. administration, and pathological study
Method: Cancer bearing hamsters of Experiment 1 were i.v. administered the test substance C6-Ga-DP-diAsp (10) (10 mg/ml) which had been diluted with phosphate buffer at 25 mg/kg bodyweight and 12.5 mg/kg bodyweight respectively. The animals were exsanguinated and autopsied at 24 hours after administration, and observed.
The evaluation was based on the four scales of G4, G3, G2 and G1.

[3] = system: nitrosoamine-induced pancreatic cancer; experiment: laser irradiation to the extirpated organ (excited fluorescent spectrum, N2-PLS measurement), tumor to tissue ratio; type: in vivo, Golden hamsters; conditions: i.v. 25 mg/kg bodyweight, organs extirpated at 24 hours after administration
Method: Golden hamsters (males, 5 per group, bodyweight approximately 150 g) were implanted subcutaneously tumor cells of the nitrosoamine-induced pancreatic cancer. After 14 to 21 days following implantation, animals were intravenously (i.v.) administered the test substance EG-Ga-DP-diGly (10 mg/ml) which had been diluted with phosphate buffer at 25 mg/kg bodyweight. At 24 hours after administration, the organs including the tumor were extirpated, irradiated with N2-pulsed laser (N2, 337 nm, 2 ns, 400 - 1000 nm), and measured of excited fluorescent spectrum. The wavelengths of 600 - 900 nm were studied using the peak wavelength of NADH at 470 nm as a reference. (N2-PLS measurement). […] (Tumor to tissue ratio).
Excited fluorescent spectra of the organs extirpated at 24 hours after administration were measured, and the peak wavelength at 600 - 900 nm was calculated by setting the peak wavelength at 470 nm as the reference 1. As fluorescence in Mn, Fe and Cu complexes is not sufficiently intense as to enable N2-PLS measurement, the extraction method was applied to these compounds. At 24 hours following administration, the organs were extracted with an organic solvent (such as chloroform-methanol) via acetone powder, and the obtained extract was measured of UV or HPLC to calculate the tumor to tissue ratio.

[4] = system: Leukemia cells of a mouse (P388); experiment: in vitro photosensitivity test (cell growth inhibition ratio); type: cell-based; conditions: irradiated at 10,000 lux for 1 hour, incubated for 48 hours, versus group shielded from light
Method: Leukemia cells of a mouse (P388) were placed in wells (a plate with 24 wells) at 5 x 10^4/well, and incubated for 2 hours. The test materials C8-Ga-DP-diAsp (12), C10-Mn-DP-diAsp (37) and photofrin II each at concentrations of 1.56, 3.13, 6.25, 12.5, 25, and 50 ng/ml (common ratio : 2) were prepared. The specified amounts of these test solutions were added to the above culture, irradiated at 10,000 lux for 1 hour, incubated for 48 hours, and the cells per one well were counted. A group shielded from light using an aluminium foil during irradiation was provided as control. The index of photosensitivity was obtained by dividing the cell counts of the respective groups with the cell count of an untreated group provided separately (cell growth inhibition ratio (%)).
However, this was attributed to the toxicity of the test material per se rather than to irradiation.

[5] = system: nitrosoamine-induced pancreatic cancer; experiment: in vivo cell growth inhibition effect (tumor size by slide calipers); design: species or system hamsters; conditions: i.v. 25 mg/kg bodyweight
Method: Tumor bearing hamsters of Experiment 1 were i.v. administered the test substance C10-Mn-DP-diAsp (37) (10 mg/ml) diluted by phosphate buffer at 25 mg/kg bodyweight. The tumor size was measured supracutaneously using slide calipers on an appropriate day following administration.

[6] = system: nitrosoamine-induced pancreatic cancer; experiment: pathology of tumor and organs (hematoxylin-eosin sections); type: in vivo, hamsters; conditions: treated as in Experiment 2, formalin fixed
Method: Tumor bearing hamsters of Experiment 1 were treated similarly as in Experiment 2 except that they were administered C12-Mn-DP-diAsp (48) instead of C6-Ga-DP-diAsp (10). Organs including the tumor (the treated group and the control group) were fixed with formalin, embedded in paraffin, cut into sections, double stained with hematoxylin-eosin, and observed pathologically.
Figs. 4 and 5 show photographs of the tumor cell necrosis of the treated group. There were many cell necrosis images and necrotic layers which were not present in the non-cancerous organs and the control group.

[7] = luminescence properties of porphyrin derivatives (Table 1); type: physicochemical
Source text: There are two stages of destruction; Mechanism I under which the pigments are excited by light to assume the triple state which directly destroys the cancer cells, and Mechanism II under which the pigments in the triple state further excite oxygen to form the singlet state oxygen (activated oxygen) leading to cell necrosis. In the case of porphyrin derivatives, the Mechanism II is considered prevalent. By measuring the triple state life time (the fluorescence and phosphorescence life time) which indicates porphyrin's triple state, the length of phosphorescence life time is compared to reveal the intensity of photo-sensitivity. […] In other words, phosphorescence life time of metalloporphyrins coordinated with such metals as Zn and Ga is long while that of those coordinated with Mn, Fe, or Cu is very short.

[8] = i.v. 25 mg/kg and 12.5 mg/kg bodyweight, autopsy at 24 hours after administration

tumor/tissue cancer/ kidney [3] | tumor/tissue cancer/ liver [3] | tumor/tissue cancer/ lung [3] | tumor/tissue cancer/ serum [3] | Compound | state of the cancer mass after Yag laser irradiation [1] | photograph of a cancer mass (Fig. 2) [2] | Hemorrhagic necrosis effect [2] | tumor growth compared to the control group (Fig. 6) [5] | also measured
16.44 | 11.54 | 23.08 | 2.78 | CCCCCCCCCCOC(C)C1=C(C)c2cc3[nH]c(cc4nc(cc5[nH]c(cc1n2)c(C)c5C(C)OCCCCCCCCCC)C(C)=C4CCC(=O)NC(CC(=O)O)C(=O)O)c(CCC(=O)NC(CC(=O)O)C(=O)O)c3C.[Ga] (stereo not shown) [(16) C10-Ga-DP-diAsp, 2,4-bis(1-decyloxyethyl)-Ga-deuteroporphynyl diaspartic acid] | necrotic | hemorrhagic necrosis | G2 |  | 
2.12 | 1.47 | 2.20 | 0.29 | CCCCCCCCOC(C)C1=C(C)C2=Cc3c(C(C)OCCCCCCCC)c(C)c4[n]3[Ga][n]3c(c(C)c(CCC(=O)NC(CC(=O)O)C(=O)O)c3=CC3=NC(=C4)C(C)=C3CCC(=O)NC(CC(=O)O)C(=O)O)=CC1=N2 (stereo not shown) [(12) C8-Ga-DP-diAsp, 2,4-bis(1-octyloxyethyl)-Ga-deuteroporphynyl diaspartic acid] |  | hemorrhagic necrosis | G3 |  | concentration at which photosensitivity is manifested [4]: ≥ 1.0 ng/mL

The next lines start with the compound.

Compound | tumor/tissue cancer/ kidney [3] | tumor/tissue cancer/ liver [3] | tumor/tissue cancer/ lung [3] | tumor/tissue cancer/ serum [3] | state of the cancer mass after Yag laser irradiation [1] | photograph of a cancer mass (Fig. 2) [2] | Hemorrhagic necrosis effect [2] | tumor growth compared to the control group (Fig. 6) [5] | also measured
CCCCCCCCCCOC(C)C1=C(C)c2cc3[nH]c(cc4nc(cc5[nH]c(cc1n2)c(C)c5C(C)OCCCCCCCCCC)C(C)=C4CCC(=O)NC(CC(=O)O)C(=O)O)c(CCC(=O)NC(CC(=O)O)C(=O)O)c3C.[Mn] (stereo not shown) [(37) C10-Mn-DP-diAsp, 2,4-bis(1-decyloxyethyl)-Mn-deuteroporphynyl diaspartic acid] |  |  |  |  |  |  | G3 | notable tumor growth inhibitory effect | photosensitivity [4]: no photosensitivity
CCCCCCOC(C)C1=C(C)C2=Cc3c(C(C)OCCCCCC)c(C)c4[n]3[Ga][n]3c(c(C)c(CCC(=O)NC(CC(=O)O)C(=O)O)c3=CC3=NC(=C4)C(C)=C3CCC(=O)NC(CC(=O)O)C(=O)O)=CC1=N2 (stereo not shown) [(10) C6-Ga-DP-diAsp, 2,4-bis(1-hexyloxyethyl)-Ga-deuteroporphynyl diaspartic acid] | 6.86 | 5.33 | 5.33 | 0.98 | necrotic | hemorrhagic necrosis | G4 |  | changes of the organs such as the liver, lungs, kidneys excluding the tumor [2, 8]: showed no changes; effect on the cancer mass [2, 8]: developed hemorrhagic necrosis
CCCCCCCCCCCCOC(C)C1=C(C)C2=Cc3c(C(C)OCCCCCCCCCCCC)c(C)c4[n]3[Mn][n]3c(c(C)c(CCC(=O)NC(CC(=O)O)C(=O)O)c3=CC3=NC(=C4)C(C)=C3CCC(=O)NC(CC(=O)O)C(=O)O)=CC1=N2 (stereo not shown) [(48) C12-Mn-DP-diAsp, 2,4-bis(1-dodecyloxyethyl)-Mn-deuteroporphynyl diaspartic acid] |  |  |  |  |  |  | G4 | notable tumor growth inhibitory effect | pathological observation of the tumor (Fig. 4) [6]: necrotic tumor cells
Ga-protoporphyrin dimethyl ester [Ga-PP-Me] |  |  |  |  |  |  |  |  | Absorbance [7]: 570 nm; Fluorescence [7]: 575 nm; Phosphorescence [7]: 715 nm; Phosphorescence life time ([7]; Filter paper): 50 ms; Phosphorescence life time ([7]; Solution): 200 ms
